# Laboratory results taken from patent US10369123B2, “Perk activator for the treatment of neurodegenerative diseases” (DEUTSCHES ZENTRUM FÜR NEURODEGENERATIVE ERKRANKUNGEN E.V. …, priority 2014, dated 2019).
# Entries after “also recorded” stand apart in the source; their conditions may differ.
# How the values were obtained:
# tau = assay: Western blot of tau conformation and phosphorylation, annonacin model; type: cell-based, human; details: annonacin 25 nM + PERK activator, 48 h
# Description: Nunc™ Nunclon™ Delta 6-well (for protein and mRNA) or 48-well (for cell assays) plates (Thermo Fisher Scientific, Waltham, Mass., USA) were coated with 100 μg/ml poly-L-lysine (Sigma-Aldrich, St. Louis, Mo., USA) and 5 μg/ml fibronectin (Sigma-Aldrich). LUHMES (Lund Human Mesencephalic) cells, derived from human embryonic ventral mesencephalic cells by conditional immortalization (Tet-off v-myc over-expression) were seeded out in a concentration of 130,000 cells/cm^2 to achieve a confluence of 50%. They were then differentiated for 8 days in a medium of DMEM/F12 (Sigma-Aldrich), 1 μg/ml tetracycline, […] and 490 μg/ml dbcAMP into post-mitotic neurons with a dopaminergic phenotype (Lotharius et al. 2005).
# For all experiments with annonacin, the medium was replaced during the intoxication period with new medium containing glucose levels reduced to 250 μM, i.e. the physiological concentration in the human brain.
# Protein was extracted by scraping the cells from the culture plate with Mammalian Protein Extraction Reagent (M-PER, Thermo Fisher Scientific) and 1× cOmplete Protease Inhibitor Cocktail Tablets (Hoffmann-La Roche, Basel, Switzerland) and 1× PhosSTOP Phosphatase Inhibitor Cocktail Tablets (Hoffmann-La Roche). For pNRF2 blots, cells were extracted with 2% SDS tris-buffer instead of M-PER in order to obtain whole cell extracts and not to lose the nuclear fraction. The protein solution was frozen at −80° C., immediately after retrieval, for a minimum of two hours. The solution was then thawed on ice, vortexed, centrifuged at 5000 g for 15 min at 4° C. and the supernatant retrieved. Protein concentrations were determined using the BCA kit (Thermo Fisher Scientific) by heating the samples at 60° C. for 30 min and measuring the absorption on the NanoDrop 2000c Spectrophotometer (Thermo Fisher Scientific).
# 20 μg of protein (unless indicated otherwise) were adjusted to equal concentrations between samples by dilution with M-PER and subsequently heated at 95° C. for 5 minutes with Roti®-Load 1 (Carl Roth). SDS-PAGE was performed using Any kD™ Mini-PROTEAN® TGX™ Gels (BioRad, Berkeley, Calif., USA) in a tris-glycine running buffer. The protein was blotted onto PVDF membrane (BioRad) at 70 V for 65 minutes on ice. The membrane was blocked with 1× Roti®-Block solution (Carl Roth) for 1 h and then incubated at 4° C. overnight under gentle shaking with the primary antibody (see Table 5) in TBS with 5% BSA (Cell Signaling Technology) and 0.05% TWEEN (Sigma-Aldrich).
# The membranes were then washed and incubated with the species specific HRP-bound secondary antibody (Vector Laboratories, Burlingame, Calif., USA) at 1:2500 in 1× Roti®-Block solution for 2 h, followed by further washing and exposure to Clarity Western ECL Substrate (BioRad) or, in the case of MC1 and 4R-tau, to Amersham™ ECL™ Prime (GE Healthcare). Chemiluminescence was detected with the Gel Doc™ XR System (BioRad) and analyzed with Image Lab™ software (BioRad), followed by graphical and statistical analysis with Prism 6 (GraphPad Software).
# [1] = system: P301S tau transgenic mice; assay: Morris water maze; type: in vivo, mouse; details: 2 mg/kg i.p. once daily, tested at 15 weeks of age
# Description: All animal work was conducted either on CR57BL/6 mice, obtained from Charles River Laboratories, Wilmington, Mass., USA, or on homozygous transgenic mice overexpressing human tau with the P301S mutation on a C57BL/6 background, originally developed by Michel Goedert (Xu et al. 2014), obtained by own breeding. Animals were kept at 23±1° C. under standard 12 h light-dark cycle with free access to food and water. They were handled according to the EU Council Directive 2010/63/EU, the Guide for the Care and Use of Laboratory Animals (National Research Council 2011) and the guidelines of the local institutional committee. The experiments were authorized by the local authority “Regierung von Oberbayern” under application number 55.2-1-54-2532-165-13. […]
# For the efficacy trial in the early disease stage (Xu et al. 2014), P301S mice (n=8 per group) and wild type littermates (n=9 per group) received once daily i.p. injections of 2 mg/kg CCT020312 or equivalent volumes of saline from 9 to 14 weeks of age; they were analyzed with the Morris Water Maze in the 15th week of age.
# To analyze spatial learning and memory, the Morris water maze test was performed at 15 weeks of age (n=8 per group) in a cylindrical water basin (diameter 120 cm) filled with water with a depth of 31 cm. […] Tracks of training and probe trial were recorded with the computerized Viewer2 system (Biobserve, Mannheim, Germany).
# [2] = system: P301S tau transgenic mice; assay: Rotarod test; type: in vivo, mouse; details: 2 mg/kg i.p. once daily for 6 weeks, 23 weeks of age, vs saline
# Description: All animal work was conducted either on CR57BL/6 mice, obtained from Charles River Laboratories, Wilmington, Mass., USA, or on homozygous transgenic mice overexpressing human tau with the P301S mutation on a C57BL/6 background, originally developed by Michel Goedert (Xu et al. 2014), obtained by own breeding. Animals were kept at 23±1° C. under standard 12 h light-dark cycle with free access to food and water. They were handled according to the EU Council Directive 2010/63/EU, the Guide for the Care and Use of Laboratory Animals (National Research Council 2011) and the guidelines of the local institutional committee. The experiments were authorized by the local authority “Regierung von Oberbayern” under application number 55.2-1-54-2532-165-13.
# 5 mg of the PA compound CCT020312 (EMD Millipore, Billerica, Mass., USA) was first dissolved in 100 μl sterile DMSO (AppliChem, Darmstadt, Germany) and then diluted in sterile saline (B. Braun Medical, Melsungen, Germany) to achieve a stock solution of […].
# For the efficacy trial in the late disease stage (Xu et al. 2014), P301S mice and wild type littermates received once daily i.p. injections of 2 mg/kg CCT020312 or saline from 17 to 22 weeks of age (n=12 for CCT020312 treated P301S mice, n=9 for other groups); they were analyzed with the Rotarod test in the 23rd week of age. […]
smiles,measurement,setting,value
"CCN(CC)CCC(=O)N1N=C(c2c(-c3ccccc3)c3cc(Br)ccc3[nH]c2=O)CC1c1ccc(Br)cc1 (stereo not shown) [CCT020312, 6-bromo-3-[5-(4-bromo-phenyl)-1-(3-diethylamino-propionyl)-4,5-dihydro-1H-pyrazol-3-yl]-4-phenyl-1H-quinolin-2-one]",total tau protein (HT7),tau,not altered
same,AD2 (p-Ser-396 and 404) tau phosphorylation,tau; vs annonacin alone,significantly reduced
same,CP13 (p-Ser-202) tau phosphorylation,tau; vs annonacin alone,significantly reduced
same,MC1 pathological tau conformation,tau; vs annonacin alone,reversed; also recorded: averted
same,latency to find the hidden platform / learning curve,"[1]; P301S tau mice, vs saline",significantly improved; also recorded: steeper learning curve
same,latency to find the hidden platform / learning curve,[1]; wild type mice,did not significantly affect; also recorded: did not change the learning curve
same,Rotarod performance (latency to fall),[2],significantly improved; also recorded: increased performance
